In patent US6589949B1, “3-oxo-2,1-benzisoxazol-1(3H)-carboxamides for treatment of CNS diseases” (Bayer Aktiengesellschaft, priority 1999, dated 2003):

Experiments:
[1] = target: T1, acylpeptide hydrolase (ACPH) (Rattus norvegicus, UniProt P13676); assay: In vitro determination of the inhibition of ACPH; assay type: biochemical; settings: rat brain homogenate; substrate 100 μM N-acetyl-methionyl-aminomethyl-coumarin; 30 min preincubation, 30 min reaction
T1 construct: 50 μl of brain homogenate and 100 μM N-acetyl-methionyl-aminomethyl-coumarin as the enzyme substrate; from tissue; host or cells: rat brain homogenate
T1 sequence (P13676 1-732): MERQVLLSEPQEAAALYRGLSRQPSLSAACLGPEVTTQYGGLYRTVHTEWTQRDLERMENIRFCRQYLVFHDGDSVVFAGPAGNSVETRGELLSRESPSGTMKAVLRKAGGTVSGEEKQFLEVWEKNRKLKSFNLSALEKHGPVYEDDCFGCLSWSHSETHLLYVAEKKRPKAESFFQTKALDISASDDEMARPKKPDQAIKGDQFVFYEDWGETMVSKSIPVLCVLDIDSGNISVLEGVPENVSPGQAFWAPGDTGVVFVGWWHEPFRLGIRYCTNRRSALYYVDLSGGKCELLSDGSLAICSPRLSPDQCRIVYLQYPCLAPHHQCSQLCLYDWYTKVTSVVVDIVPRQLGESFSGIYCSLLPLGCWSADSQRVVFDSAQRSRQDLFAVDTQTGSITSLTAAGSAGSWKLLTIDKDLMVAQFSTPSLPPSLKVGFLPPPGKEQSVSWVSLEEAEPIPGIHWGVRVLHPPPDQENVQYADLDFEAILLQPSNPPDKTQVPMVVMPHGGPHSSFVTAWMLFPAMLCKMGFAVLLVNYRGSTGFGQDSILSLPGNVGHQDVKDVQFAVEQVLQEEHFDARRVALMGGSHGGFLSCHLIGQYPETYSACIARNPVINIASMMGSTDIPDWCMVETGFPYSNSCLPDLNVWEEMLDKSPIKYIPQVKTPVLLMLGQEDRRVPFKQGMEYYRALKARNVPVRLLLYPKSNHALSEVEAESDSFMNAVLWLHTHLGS
Protocol: In vitro determination of the Inhibition of ACPH
In the standard experiment, rat brains are homogenized in a 10-fold volume (w/v) of 50 mM tris HCl buffer, 1 mM EDTA, 100 mM NaCl, 0.1% BSA, 1 mM DDT, pH 7.2. The protein concentration of the homogenate is adjusted to approximately 5 mg/ml by dilution with buffer. The incubation batch (110 μl) contains 40 μl of buffer, various test concentrations of the test substances to be tested in 10 μl of buffer, 50 μl of brain homogenate and 100 μM N-acetyl-methionyl-aminomethyl-coumarin as the enzyme substrate. Before addition of the substrate, the reaction mixture is preincubated at room temperature for 30 min. The enzyme reaction is started by substrate addition. The reaction time is 30 min. Afterwards, the samples are activated in a fluorimeter at 390 nm and determined quantitatively at 460 nm. The IC50 value is calculated from the enzyme activity in the presence of increasing concentrations of test substance in the test. For the measurement of the ACPH activity, purified enzyme from liver or other organs can also be used and also homogenates of other organs having ACPH activity, such as liver or erythrocytes.

melting point | IC50 [1] | SMILES
99 °C |  | O=C(N1CCCC1)n1oc(=O)c2ccccc21 [Example 3]
98 °C |  | O=C(N1CC2CCC2C1)n1oc(=O)c2ccc(Cl)cc21 (centres unmarked) [Example 12]
52 °C |  | CN(CCCl)C(=O)n1oc(=O)c2cc(Cl)ccc21
163 °C |  | O=C(N1CCC1)n1oc(=O)c2ccccc21 [Example 2]
129 °C | 48 nM | Cc1ccc2c(c1)c(=O)on2C(=O)N1CCCC1 [Example 6]
109 °C | 6 nM | O=C(N1CCCC1)n1oc(=O)c2c(F)cccc21 [Example 4]
116 °C |  | O=C(N1CCOCC1)n1oc(=O)c2ccc(Cl)cc21 [Example 10]
85 °C |  | O=C(N1CC2CCC2C1)n1oc(=O)c2cc(Cl)ccc21 (centres unmarked) [Example 15]
133 °C | 99 nM | O=C(N1CCCC1)n1oc(=O)c2cc(F)c(F)cc21 [Example 7]
141 °C |  | O=C(N1CCOCC1)n1oc(=O)c2c(F)cccc21 [Example 14]
103 °C |  | O=C(N1CCCC1)n1oc(=O)c2cc(Cl)ccc21 [Example 8]
153 °C |  | O=C(N1CCOCC1)n1oc(=O)c2cc(Cl)ccc21 [Example 19]

SMILES | melting point | IC50 [1]
CN(C)C(=O)n1oc(=O)c2ccccc21 [Example 5] | 93 °C | 18 nM
